Test results: US6013642A, “Use of estrone derivatives as steroid sulphatase inhibitors” (priority 1994, dated 2000)

What was measured:
[1] = system: mouse contact sensitisation model; assay: Contact sensitisation (oxazalone, ear swelling) in mice; format: in vivo; settings: for increase in ear thickness (steroid alone): 100 μg/mouse s.c. days 0, 4 and 5; for normal ear swelling (steroid alone): Experiment 4, FIG. 7; for normal ear swelling (steroid alone) / ear swelling response (steroid alone): 5 mg/kg s.c. days 0 and 4
Protocol: 1. Contact Sensitisation (CS)
On day 0, mice were painted on their shaved right flank with 50 μl 2.5% oxazalone or vehicle (acetone 4:1 olive oil). On day 5 animals were challenged on their dorsal right ear surface with 25 μl of either 0.75% or 0.25% oxazalone. Prior to ear challenge, and 24, 48 and 72 hour post challenge ear thickness was measured using an engineer's micrometers. Ear swelling is determined as the difference in thickness prior and post challenge. The data are expressed as percentage change from the vehicle treated groups given sensitisation and challenge.
DHEA, DHEAS were administered at various times, generally at time of sensitisation (day 0) and time of challenge (day 3 or 4-DTH model, day 4 or 5-(CS-model) in order to obtain an augmentation of the immune response above non-steroid treated animals.
Different doses of the inhibitors have been used, and compared to the effect of dexamethasone as potential immunosuppressive/anti-inflammatory agents.

[2] = system: mouse contact sensitisation model; assay: Cellular infiltrate (anti-CD3 / anti-Mac-1 positive cells) in challenged ears, contact sensitisation; format: in vivo, mice; settings: Experiment 7, FIG. 10; DHEAS 5 mg/kg days 0 and 5; 24 h following challenge
Protocol: Animals were randomised into 7 groups (n=7-10) and steroids given on days 0 and 5. At 24 h following challenge, ears were removed, fixed and stained with either an anti-CD3 (T-cells) or anti-Mac-1 (monocytes/macrophages) antibody and the number of positive cells counted in 10 random fields.

[3] = system: mouse delayed type hypersensitivity model; assay: Delayed type hypersensitivity (SRBC, footpad swelling) in the mouse; format: in vivo; settings: FIG. 11; 5 mg/kg s.c.; 24 h post challenge
Protocol: 2. Delayed Type Hypersensitivity (DTH)
On day 0, animals were injected intravenously with 10^6 washed SRBC in 0.1 ml saline. Four days later animals were challenged in the right hind footpad with 10^6 washed SRBC in 50 μl saline. Footpad thickness is measured prior to challenge, 24, 48 and 72 hours post challenge using calipers. Footpad swelling is determined as the difference in thickness prior and post challenge. The data are expressed as percentage change from the vehicle treated groups given sensitisation and challenge.
Animals were randomised into 10 groups (n=7-8) and steroids given on day 0 and 4.
Steroids were given on day 0 and 3 subcutaneously. Response at 24 h post challenge. Results given as mean±sem. $, *p<0.05 ANOVA.

[4] = system: carrageenan pleurisy; assay: Carrageenan pleurisy; format: in vivo, Wistar Rats; settings: FIG. 14; DEX 1 mg/kg p.o. at T=-1 h; six hours
Protocol: Wistar Rats were anaesthetised and given intra-pleural injections of 0.5% carrageenan in saline at time 0. Six hours later the animals were killed and pleural cavity lavaged with 1 ml. citrated saline. Volume of fluid exudate and exudate cell concentration were measured. Animals were randomised to 5 treatment groups (n=6).

[5] = Experiment 1, FIG. 4, 48 post challenge
[6] = Experiment 2, FIG. 5, 100 μg/mouse s.c. days 0 and 5, 24 h post-challenge
[7] = Metabolites Experiment 3, FIG. 17

SMILES | increase in ear thickness (steroid alone) [1, 5] | ear swelling response [1, 6] | normal ear swelling (steroid alone) [1] | ear swelling response (steroid alone) [1, 7] | foot swelling response (steroid alone) [3] | other results
C[C@]12CC[C@H](OS(=O)(=O)O)CC1=CC[C@@H]1[C@@H]2CC[C@]2(C)C(=O)CC[C@@H]12 [DHEAS, DHEA sulphate] | augmented the normal increase in ear thickness | significantly augmented the response | augmented the normal ear swelling | stimulatory response | clearly pro-immune (or pro-inflammatory) | anti-glucocorticoid effect on ear swelling ([1]; Experiment 3, FIG. 6, DHEAS 0.0005-50 mg/kg with corticosterone 5 mg/kg s.c. days 0 and 4): functional anti-glucocorticoid effect; immune and inflammatory cell infiltrate into challenged ears [2]: can augment both immune and inflammatory cell infiltrate into challenged ears
CC12CCC(OS(=O)(=O)O)CC1=CCC1C2CCC2(C)C(O)CCC12 (stereo not drawn) [AEDS] |  |  |  | stimulatory response |  | ear swelling response ([1]; Metabolites Experiment 2, FIG. 16, AEDS 0.0005-5 mg/kg s.c. days 0 and 4): can augment the ear swelling response; dose for augmentation of ear swelling, less than seen with DHEAS ([1]; Metabolites Experiment 2, FIG. 16, relative to DHEAS): at least 1000 fold; substrate for the sulphatase enzyme in vivo [1, 7]: can serve as a physiological substrate for the sulphatase enzyme in vivo
C[C@]12CC[C@H](O)CC1=CC[C@@H]1[C@@H]2CC[C@]2(C)C(=O)CC[C@@H]12 [DHEA, Dehydroepiandrosterone] | augmented the normal increase in ear thickness | significantly augmented the response | augmented the normal ear swelling |  | clearly pro-immune (or pro-inflammatory) | ear swelling response ([1]; Metabolites Experiment 1, FIG. 15, DHEA 0.005-5 mg/kg, AED 0.05-5 mg/kg s.c. days 0 and 4): can augment the ear swelling response
C[C@@H]1C[C@H]2[C@@H]3CCC4=CC(=O)C=C[C@]4(C)[C@@]3(F)[C@@H](O)C[C@]2(C)[C@@]1(O)C(=O)CO [Dexamethasone, dexamethasone] | reduced the response | inhibited | inhibited |  |  | degree of ear swelling ([1]; Experiment 5, FIG. 8, DEX 5 mg/kg s.c. days 0 and 4, 24 h): inhibited the degree of ear swelling; fluid leakage (exudate) [4]: can completely inhibit fluid leakage; reduction of cellular influx [4]: 68%
CN(C)S(=O)(=O)Oc1ccc2c(c1)CC[C@@H]1[C@@H]2CC[C@]2(C)C(=O)CC[C@@H]12 [CT 2210, Estrone-3-0-(N,N-dimethyl)sulphamate] |  |  |  |  |  | ear swelling, inhibitor alone ([1]; Experiment 1, FIG. 4, 2 mg/mouse s.c. days 0, 4 and 5, 48 post challenge): able to attenuate the ear swelling seen in the absence of DHEA and DHEAS; reversal of stimulatory effects of DHEA and DHEAS on ear swelling ([1]; Experiment 1, FIG. 4, inhibitor 2 mg/mouse with DHEA or DHEAS 100 μg/mouse s.c. days 0, 4 and 5, 48 post challenge): able to reverse the stimulatory effects of either DHEA and DHEAS
